Data set [1] concerns the target RAC-alpha serine/threonine-protein kinase (Homo sapiens) (UniProt P31749). The data set can be described thus: Inhibition of human recombinant PKBalpha at 500 nM radiometric scintillation counting analysis relative to control.
Data set [2] relates to RBL-2H3. The data set can be described thus: Antiallergic activity against anti-DNP-IgE sensitized rat RBL-2H3 cells assessed as […] of degranulation by measuring beta-hexosaminidase release using P-nitrophenyl-N-acetyl-D-glucosamide as substrate at 0.2 uM measured after 1 hr by microplate reader relative to control. In kind it is functional.
Data set [3] has as its target Tyrosine-protein kinase Yes (Homo sapiens, UniProt P07947). As to the kind of experiment: Inhibition of human full length recombinant Yes by radiometric scintillation counting analysis.
Data set [4] is described as follows: Toxicity in anti-DNP IgE sensitized BALB/c mouse assessed as splenomegaly at 40 mg/kg, po. The class given is organism-based. The conditions noted are these: in vivo.
Data set [5] in a line: AUC (0 to t) in BALB/c mouse at 20 mg/kg, po measured up to 24 hrs by LC-MS/MS analysis. In kind it is ADME, organism-based. On the set-up: route oral, dose 20 mg/kg, time <=24. Particulars: in vivo.
Data set [6] has as its target T1, Inhibitor of nuclear factor kappa-B kinase subunit alpha (Homo sapiens) (UniProt O15111).
T1 sequence (whole entry): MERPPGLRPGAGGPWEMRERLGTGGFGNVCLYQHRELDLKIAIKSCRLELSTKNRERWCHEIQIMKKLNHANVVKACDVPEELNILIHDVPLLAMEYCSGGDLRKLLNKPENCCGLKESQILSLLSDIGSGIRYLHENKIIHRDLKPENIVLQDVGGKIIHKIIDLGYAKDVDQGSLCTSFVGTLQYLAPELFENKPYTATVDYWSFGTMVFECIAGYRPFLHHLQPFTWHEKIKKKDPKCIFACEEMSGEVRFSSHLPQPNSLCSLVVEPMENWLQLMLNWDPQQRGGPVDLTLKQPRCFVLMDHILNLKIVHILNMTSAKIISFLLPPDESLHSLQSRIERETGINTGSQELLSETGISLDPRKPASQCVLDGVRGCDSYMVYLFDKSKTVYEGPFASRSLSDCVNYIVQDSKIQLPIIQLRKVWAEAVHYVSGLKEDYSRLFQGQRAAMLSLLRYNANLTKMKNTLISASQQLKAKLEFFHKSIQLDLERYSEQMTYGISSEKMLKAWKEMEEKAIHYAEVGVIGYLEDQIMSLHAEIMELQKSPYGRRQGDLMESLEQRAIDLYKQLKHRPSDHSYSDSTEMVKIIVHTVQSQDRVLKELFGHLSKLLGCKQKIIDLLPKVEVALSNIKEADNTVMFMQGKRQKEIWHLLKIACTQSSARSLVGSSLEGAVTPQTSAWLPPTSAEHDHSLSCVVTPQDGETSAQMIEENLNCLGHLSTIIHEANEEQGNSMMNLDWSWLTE
The data set can be described thus: Inhibition of human full length recombinant IKKalpha at 5 nM by radiometric scintillation counting analysis relative to control.

Data set [7] deals with T2, Tyrosine-protein kinase ITK/TSK (Homo sapiens) (UniProt Q08881).
T2 sequence (whole entry): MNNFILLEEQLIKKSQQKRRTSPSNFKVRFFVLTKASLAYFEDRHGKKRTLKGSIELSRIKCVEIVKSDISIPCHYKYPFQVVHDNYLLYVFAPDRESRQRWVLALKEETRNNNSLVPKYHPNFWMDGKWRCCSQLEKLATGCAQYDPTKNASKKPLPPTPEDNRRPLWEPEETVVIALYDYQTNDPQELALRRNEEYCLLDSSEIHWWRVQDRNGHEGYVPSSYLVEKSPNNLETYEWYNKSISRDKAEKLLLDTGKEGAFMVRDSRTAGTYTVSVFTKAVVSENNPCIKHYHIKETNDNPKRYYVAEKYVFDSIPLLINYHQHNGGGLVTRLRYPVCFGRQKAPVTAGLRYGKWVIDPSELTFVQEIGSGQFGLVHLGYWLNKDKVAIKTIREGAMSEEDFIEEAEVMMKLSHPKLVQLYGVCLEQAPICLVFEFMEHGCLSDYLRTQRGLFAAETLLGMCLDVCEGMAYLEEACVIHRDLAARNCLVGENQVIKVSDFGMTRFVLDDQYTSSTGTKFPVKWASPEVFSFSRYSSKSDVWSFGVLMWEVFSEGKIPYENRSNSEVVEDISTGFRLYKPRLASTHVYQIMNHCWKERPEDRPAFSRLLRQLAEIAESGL
The data set can be described thus: Inhibition of human recombinant ITK (352 to 617) at 50 nM by radiometric scintillation counting analysis relative to control.

For data set [8], the target named is Tyrosine-protein kinase Lck (Homo sapiens, UniProt P06239). The data set can be described thus: Inhibition of human full length recombinant LCK by radiometric scintillation counting analysis.
Sequence of Tyrosine-protein kinase Lck (P06239 whole entry): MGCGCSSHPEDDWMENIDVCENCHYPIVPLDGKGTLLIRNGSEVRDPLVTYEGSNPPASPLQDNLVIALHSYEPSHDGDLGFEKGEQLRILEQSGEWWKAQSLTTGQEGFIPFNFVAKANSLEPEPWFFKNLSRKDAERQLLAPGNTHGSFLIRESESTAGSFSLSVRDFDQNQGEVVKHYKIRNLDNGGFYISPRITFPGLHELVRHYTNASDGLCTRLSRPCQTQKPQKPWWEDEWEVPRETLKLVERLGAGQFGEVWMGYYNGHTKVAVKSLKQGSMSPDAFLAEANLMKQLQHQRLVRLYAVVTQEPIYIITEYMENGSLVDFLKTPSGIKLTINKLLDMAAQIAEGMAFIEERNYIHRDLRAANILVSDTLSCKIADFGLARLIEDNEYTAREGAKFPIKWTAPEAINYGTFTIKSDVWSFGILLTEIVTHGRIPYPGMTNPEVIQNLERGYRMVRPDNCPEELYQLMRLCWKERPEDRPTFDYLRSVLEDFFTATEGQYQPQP
The target of data set [9] is Tyrosine-protein kinase SYK (Rattus norvegicus) (UniProt Q64725). As to the kind of experiment: Inhibition of Syk phosphorylation in rat RBL-2H3 cells assessed as inhibition of Fc epsilonRI-mediated signal transduction by Western blot analysis. In kind it is cell-based. Particulars: dose 8-200 nM. Background: In western blotting, separated proteins are transferred to a membrane and probed.

The target of data set [10] is Tyrosine-protein kinase Fyn (Homo sapiens, UniProt P06241). As to the kind of experiment: Inhibition of human full length recombinant Fyn by radiometric scintillation counting analysis.
Sequence of Tyrosine-protein kinase Fyn (P06241 whole entry): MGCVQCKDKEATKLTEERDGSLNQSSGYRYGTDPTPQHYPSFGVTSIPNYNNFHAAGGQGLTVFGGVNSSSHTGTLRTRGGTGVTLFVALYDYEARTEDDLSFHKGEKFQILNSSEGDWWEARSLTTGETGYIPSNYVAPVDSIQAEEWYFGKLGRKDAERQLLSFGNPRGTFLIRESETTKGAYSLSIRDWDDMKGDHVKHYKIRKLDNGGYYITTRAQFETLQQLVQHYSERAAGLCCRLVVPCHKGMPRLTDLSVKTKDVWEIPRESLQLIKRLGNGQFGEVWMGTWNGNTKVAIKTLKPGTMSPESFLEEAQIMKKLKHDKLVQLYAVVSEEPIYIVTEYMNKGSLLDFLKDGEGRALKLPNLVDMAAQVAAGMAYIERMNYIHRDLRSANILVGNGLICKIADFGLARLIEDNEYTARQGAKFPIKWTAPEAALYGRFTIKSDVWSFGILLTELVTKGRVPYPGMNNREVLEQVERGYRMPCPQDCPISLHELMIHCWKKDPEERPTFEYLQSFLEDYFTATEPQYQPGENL
Data set [11] is described as follows: Tmax in BALB/c mouse at 20 mg/kg, po measured up to 24 hrs by LC-MS/MS analysis. The conditions noted are these: in vivo. The class given is ADME, organism-based.
Data set [12] concerns the target Tyrosine-protein kinase Srms (Homo sapiens, UniProt Q9H3Y6). The data set can be described thus: Inhibition of human SRMS by radiometric scintillation counting analysis.
For data set [13], the target named is TXK (Homo sapiens, UniProt P42681). The data set can be described thus: Inhibition of human recombinant Txk (256 to end) by radiometric scintillation counting analysis.
Sequence of TXK (P42681 whole entry, looked up): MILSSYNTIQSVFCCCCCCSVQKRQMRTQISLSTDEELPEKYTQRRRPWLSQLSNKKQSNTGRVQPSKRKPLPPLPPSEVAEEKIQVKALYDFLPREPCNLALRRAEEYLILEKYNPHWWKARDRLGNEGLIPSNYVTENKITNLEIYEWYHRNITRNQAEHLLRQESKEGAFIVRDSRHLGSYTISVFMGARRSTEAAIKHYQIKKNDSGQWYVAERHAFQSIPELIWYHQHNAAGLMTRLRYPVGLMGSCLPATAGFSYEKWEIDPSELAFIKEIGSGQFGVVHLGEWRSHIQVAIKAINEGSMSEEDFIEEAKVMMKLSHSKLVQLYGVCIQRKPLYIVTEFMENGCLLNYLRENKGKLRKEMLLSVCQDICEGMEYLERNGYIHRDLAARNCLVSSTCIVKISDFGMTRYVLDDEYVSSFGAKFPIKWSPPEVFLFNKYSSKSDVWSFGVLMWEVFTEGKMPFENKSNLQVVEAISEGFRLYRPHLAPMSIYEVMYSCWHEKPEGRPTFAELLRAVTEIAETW
A short description of data set [14]: Half life in BALB/c mouse at 2 mg/kg, iv measured up to 24 hrs by LC-MS/MS analysis. In kind it is ADME, organism-based. Particulars: in vivo.
Data set [15] has as its target Tyrosine-protein kinase Lyn (Homo sapiens, UniProt P07948). The data set can be described thus: Inhibition of human full length recombinant LYN by radiometric scintillation counting analysis.
In data set [16] the target is Proto-oncogene tyrosine-protein kinase Src (Homo sapiens, UniProt P12931). The data set can be described thus: Inhibition of human recombinant Src (1-530) by radiometric scintillation counting analysis.
Sequence of Proto-oncogene tyrosine-protein kinase Src (P12931 2-536 limits assumed): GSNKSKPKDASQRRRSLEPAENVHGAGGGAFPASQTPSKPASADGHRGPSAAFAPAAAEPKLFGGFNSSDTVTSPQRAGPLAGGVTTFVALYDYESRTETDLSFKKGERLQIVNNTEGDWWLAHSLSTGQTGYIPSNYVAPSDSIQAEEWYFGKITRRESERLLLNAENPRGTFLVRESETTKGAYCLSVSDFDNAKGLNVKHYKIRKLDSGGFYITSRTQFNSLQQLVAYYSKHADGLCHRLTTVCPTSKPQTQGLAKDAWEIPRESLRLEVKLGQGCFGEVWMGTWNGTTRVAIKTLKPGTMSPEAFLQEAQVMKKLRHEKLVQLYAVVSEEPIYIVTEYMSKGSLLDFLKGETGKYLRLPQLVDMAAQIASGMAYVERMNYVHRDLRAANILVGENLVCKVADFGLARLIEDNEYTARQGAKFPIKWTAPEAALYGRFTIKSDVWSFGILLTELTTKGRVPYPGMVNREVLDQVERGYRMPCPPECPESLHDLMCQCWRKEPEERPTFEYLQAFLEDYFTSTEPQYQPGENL
Data set [17] concerns the target Tyrosine-protein kinase BTK (Homo sapiens) (UniProt Q06187). As to the kind of experiment: Inhibition of human full length recombinant BTK at 50 nM by radiometric scintillation counting analysis relative to control.
Data set [18] addresses Tyrosine-protein kinase Fgr (Homo sapiens, UniProt P09769). As to the kind of experiment: Inhibition of human recombinant FGR (456 to 770) radiometric scintillation counting analysis.
Data set [19] addresses 1-phosphatidylinositol 4,5-bisphosphate phosphodiesterase gamma-1 (Rattus norvegicus) (UniProt P10686). The data set can be described thus: Inhibition of PLCgamma1 phosphorylation in rat RBL-2H3 cells assessed as inhibition of Fc epsilonRI-mediated signal transduction by Western blot analysis. In kind it is cell-based. Particulars: dose 8-200 nM.
Data set [20] concerns RBL-2H3. The data set can be described thus: Inhibition of Akt phosphorylation in rat RBL-2H3 cells assessed as inhibition of Fc epsilonRI-mediated signal transduction by Western blot analysis. The class given is cell-based. The conditions noted are these: dose 8-200 nM.
In data set [21] the target is Tyrosine-protein kinase HCK (Homo sapiens, UniProt P08631). As to the kind of experiment: Inhibition of human recombinant HCK (230 to 497) by radiometric scintillation counting analysis.
Sequence of Tyrosine-protein kinase HCK (P08631 whole entry): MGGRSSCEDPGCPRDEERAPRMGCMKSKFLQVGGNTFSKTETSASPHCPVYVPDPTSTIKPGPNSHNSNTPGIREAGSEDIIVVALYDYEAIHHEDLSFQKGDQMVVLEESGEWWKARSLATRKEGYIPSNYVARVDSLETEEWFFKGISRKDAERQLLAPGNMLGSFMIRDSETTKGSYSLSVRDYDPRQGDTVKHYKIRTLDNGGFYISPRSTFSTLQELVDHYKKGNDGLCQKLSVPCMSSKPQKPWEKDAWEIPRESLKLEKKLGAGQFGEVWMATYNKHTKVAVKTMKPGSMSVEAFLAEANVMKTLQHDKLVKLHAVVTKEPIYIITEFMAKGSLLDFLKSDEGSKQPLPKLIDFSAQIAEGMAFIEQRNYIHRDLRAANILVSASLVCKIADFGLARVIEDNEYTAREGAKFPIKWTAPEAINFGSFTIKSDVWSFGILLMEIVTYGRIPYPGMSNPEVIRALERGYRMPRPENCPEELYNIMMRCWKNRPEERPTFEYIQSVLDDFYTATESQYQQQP
Data set [22] is described as follows: AUC (0 to t) in BALB/c mouse at 2 mg/kg, iv measured up to 24 hrs by LC-MS/MS analysis. The class given is ADME, organism-based. On the set-up: route intravenous, dose 2 mg/kg, time <=24. Particulars: in vivo.

Sequence of Tyrosine-protein kinase Yes (P07947 whole entry): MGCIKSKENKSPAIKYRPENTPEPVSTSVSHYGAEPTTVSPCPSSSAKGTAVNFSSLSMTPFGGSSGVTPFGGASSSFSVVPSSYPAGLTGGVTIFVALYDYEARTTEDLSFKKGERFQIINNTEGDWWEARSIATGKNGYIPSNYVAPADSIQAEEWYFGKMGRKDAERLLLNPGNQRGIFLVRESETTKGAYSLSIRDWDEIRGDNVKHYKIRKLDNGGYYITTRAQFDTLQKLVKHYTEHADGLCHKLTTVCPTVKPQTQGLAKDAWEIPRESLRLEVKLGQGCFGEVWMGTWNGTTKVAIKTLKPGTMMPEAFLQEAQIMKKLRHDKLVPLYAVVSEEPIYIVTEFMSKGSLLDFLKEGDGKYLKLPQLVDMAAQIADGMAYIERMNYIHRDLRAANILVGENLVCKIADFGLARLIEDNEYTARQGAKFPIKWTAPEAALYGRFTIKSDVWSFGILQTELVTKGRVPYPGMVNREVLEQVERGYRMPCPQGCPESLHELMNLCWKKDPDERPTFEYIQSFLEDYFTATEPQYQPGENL
Sequence of RAC-alpha serine/threonine-protein kinase (Homo sapiens) (P31749 whole entry): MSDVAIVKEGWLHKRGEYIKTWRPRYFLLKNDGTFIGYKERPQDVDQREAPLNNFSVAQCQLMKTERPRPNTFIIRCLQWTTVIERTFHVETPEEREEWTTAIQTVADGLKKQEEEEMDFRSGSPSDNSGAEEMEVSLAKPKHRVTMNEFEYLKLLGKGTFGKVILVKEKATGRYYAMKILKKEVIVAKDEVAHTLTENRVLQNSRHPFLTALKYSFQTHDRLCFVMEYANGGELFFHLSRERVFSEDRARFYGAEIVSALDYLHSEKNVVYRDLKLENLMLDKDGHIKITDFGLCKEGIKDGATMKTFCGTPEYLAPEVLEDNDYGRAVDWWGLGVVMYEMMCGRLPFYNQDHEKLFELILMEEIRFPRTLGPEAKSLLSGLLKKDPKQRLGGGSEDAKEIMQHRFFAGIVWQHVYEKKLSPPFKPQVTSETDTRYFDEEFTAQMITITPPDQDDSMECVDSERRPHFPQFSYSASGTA
Sequence of Tyrosine-protein kinase Lyn (P07948 whole entry): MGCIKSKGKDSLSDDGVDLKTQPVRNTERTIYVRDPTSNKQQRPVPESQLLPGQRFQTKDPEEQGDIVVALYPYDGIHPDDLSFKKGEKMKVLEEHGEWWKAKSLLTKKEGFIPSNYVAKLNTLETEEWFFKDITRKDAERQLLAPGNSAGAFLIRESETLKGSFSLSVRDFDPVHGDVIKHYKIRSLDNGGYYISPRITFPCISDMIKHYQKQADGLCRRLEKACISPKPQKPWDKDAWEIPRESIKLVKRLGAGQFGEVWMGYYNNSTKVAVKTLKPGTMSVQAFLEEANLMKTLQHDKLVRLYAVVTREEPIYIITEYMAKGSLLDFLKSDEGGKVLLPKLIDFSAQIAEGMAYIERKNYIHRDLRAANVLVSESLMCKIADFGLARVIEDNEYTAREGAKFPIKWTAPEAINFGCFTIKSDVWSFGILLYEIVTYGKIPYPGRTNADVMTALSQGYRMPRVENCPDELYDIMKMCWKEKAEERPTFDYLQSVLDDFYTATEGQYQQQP
Sequence of Tyrosine-protein kinase Srms (Q9H3Y6 whole entry): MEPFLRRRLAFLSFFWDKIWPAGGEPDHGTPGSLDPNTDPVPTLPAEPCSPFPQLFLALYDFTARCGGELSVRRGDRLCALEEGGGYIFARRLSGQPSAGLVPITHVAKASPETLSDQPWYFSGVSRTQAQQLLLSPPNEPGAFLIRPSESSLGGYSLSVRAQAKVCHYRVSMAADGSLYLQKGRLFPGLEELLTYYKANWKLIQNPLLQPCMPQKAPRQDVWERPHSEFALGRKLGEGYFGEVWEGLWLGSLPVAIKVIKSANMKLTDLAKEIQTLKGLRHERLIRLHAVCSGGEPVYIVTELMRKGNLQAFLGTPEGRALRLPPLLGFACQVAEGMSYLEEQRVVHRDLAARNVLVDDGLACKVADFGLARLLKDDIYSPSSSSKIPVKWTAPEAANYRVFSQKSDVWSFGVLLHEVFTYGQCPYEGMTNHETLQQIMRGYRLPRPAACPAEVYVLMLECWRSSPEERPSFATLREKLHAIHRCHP

As to `Cc1ccc(C(=O)Nc2ccc(OC(F)(F)F)cc2)cc1C#Cc1cc(-c2cnn(C)c2)cnc1N`, the inhibition in [1] was -5%. Besides, the inhibition at 0.2 µM in [2] came to 122%.
For the molecule `Cc1ccc(C(=O)Nc2cc(C(F)(F)F)cc(C(F)(F)F)c2)cc1C#Cc1cc(-c2cnn(C)c2)cnc1N`, the half-inhibitory concentration (IC50) is 95 nM in data set [3]; 101 nM in [8]; 56 nM in data set [10]; 114 nM in data set [12]; 185 nM in data set [13]; 9 nM in data set [15]. The results for the IC50 in data set [16], in [18] and in data set [21] were 12 nM, 41 nM and 9 nM, respectively. In addition, the Activity result in data set [4] is “Non-Toxic”. The AUC(0-t) at 24 h was found to be 21300 ng·h/mL in [5] and 2130 ng·h/mL in data set [22]. Moreover, the inhibition was 9% in data set [6]; -1% in [7]; “Dose-Dependent Effect” in [9]; 27% in [17]; “Dose-Dependent Effect” in data set [19]; “Dose-Dependent Effect” in data set [20]. The Tmax in data set [11] was determined as 2.67 h. Further, in data set [14], the half-life was 334 min. In addition, in data set [2], the inhibition at 0.2 µM worked out at 162%.
Regarding `Cc1ccc(C(=O)Nc2ccc(Cl)cc2Cl)cc1C#Cc1cc(-c2cnn(C)c2)cnc1N`, the IC50 is more than 1000 nM in data set [3]; 29 nM in [8]; 307 nM in [10]; more than 1000 nM in data set [12]; more than 1000 nM in data set [13]; 7 nM in data set [15]. The 50% inhibitory concentration (IC50) is 163 nM in [16], more than 1000 nM in data set [18] and 57 nM in data set [21]. Moreover, the inhibition was 2% in data set [1], 6% in data set [6], 3% in [7] and 8% in data set [17].

One may read the inhibition as the change of the read-out against control, counted positive when it falls. The IC50 is the midpoint of a concentration-inhibition curve. In general, AUC(0-t) refers to exposure summed from dosing to a finite time, without extrapolation to infinity. Lower therefore signals less exposure. By Tmax is commonly meant the time at which the peak concentration occurs. A word on the half-life: it is how long it takes for the measured level to halve. Low values mean rapid decline, high ones slow decline.

For the origin of these results see ChEMBL document CHEMBL4837249, “Discovery of Potent Antiallergic Agents Based on an o-Aminopyridinyl Alkynyl Scaffold” (J Med Chem, 2021).
